The supplement of paper PMC10307832

Experiments:
Experiment in all cases: relative viability (nuclei count vs DMSO), 5 days (fraction); higher = more cells survive
NCI-H23 = test system: NCI-H23
Procedure, shortened: (§1)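 After 5 days of treatment, lung cancer cells in 1536-well plates were fixed and stained in a single step (final 0.05% Triton X-100, 1% formaldehyde, 1 ug/ml Hoechst) and their nuclei counted on 4× images. Treatment had been applied by pin tool the day after seeding as one drug alone or as a fixed anchor-drug dose with five library-drug doses (not always all listed) in √10 steps. Relative viability is the nuclei count of treated wells divided by that of vehicle wells, and values are medians of duplicate plates.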

NCI-H1944 = test system: NCI-H1944
Procedure, shortened: as §1

EKVX = test system: EKVX
Procedure, shortened: as §1

SK-LU-1 = test system: SK-LU-1
Procedure, shortened: as §1

EMC-BAC-2 = test system: EMC-BAC-2
Procedure, shortened: as §1

LCLC-97TM1 = test system: LCLC-97TM1
Procedure, shortened: as §1

HARA = test system: HARA
Procedure, shortened: as §1

NCI-H2126 = test system: NCI-H2126
Procedure, shortened: as §1

H3255 = test system: H3255
Procedure, shortened: as §1

NCI-H322M = test system: NCI-H322M
Procedure, shortened: as §1

NCI-H1437 = test system: NCI-H1437
Procedure, shortened: as §1

HCC-827 = test system: HCC-827
Procedure, shortened: as §1

NCI-H1792 = test system: NCI-H1792
Procedure, shortened: as §1

NCI-H460 = test system: NCI-H460
Procedure, shortened: as §1

HCC-15 = test system: HCC-15
Procedure, shortened: as §1

NCI-H441 = test system: NCI-H441
Procedure, shortened: as §1

LC-2-ad = test system: LC-2-ad
Procedure, shortened: as §1

ChaGo-K-1 = test system: ChaGo-K-1
Procedure, shortened: as §1

PC-3 [JPC-3] = test system: PC-3 [JPC-3]
Procedure, shortened: as §1

NCI-H1915 = test system: NCI-H1915
Procedure, shortened: as §1

LU99A = test system: LU99A
Procedure, shortened: as §1

NCI-H1793 = test system: NCI-H1793
Procedure, shortened: as §1

SMILES: CCCCCCCCCCCC1=C(O)C(=O)C=C(O)C1=O [Embelin] + CC1(C)CCC(c2ccc(Cl)cc2)=C(CN2CCN(c3ccc(C(=O)NS(=O)(=O)c4ccc(N[C@H](CCN5CCOCC5)CSc5ccccc5)c(S(=O)(=O)C(F)(F)F)c4)cc3)CC2)C1 [Navitoclax] (partner 0.5 µM)
- relative viability (NCI-H23; first compound 0.08 µM): 0.848
- relative viability (NCI-H23; first compound 0.8 µM): 0.904
- relative viability (NCI-H23; first compound 2.53 µM): 0.884
- relative viability (NCI-H23; first compound 8 µM): 0.74
- relative viability (NCI-H1944; first compound 0.08 µM): 1.01
- relative viability (NCI-H1944; first compound 0.8 µM): 1.11
- relative viability (NCI-H1944; first compound 2.53 µM): 1.06
- relative viability (NCI-H1944; first compound 8 µM): 0.941
- relative viability (EKVX; first compound 0.08 µM): 0.913
- relative viability (EKVX; first compound 0.8 µM): 0.895
- relative viability (EKVX; first compound 2.53 µM): 0.917
- relative viability (EKVX; first compound 8 µM): 0.938
- relative viability (SK-LU-1; first compound 0.08 µM): 0.808
- relative viability (SK-LU-1; first compound 0.8 µM): 1.16
- relative viability (SK-LU-1; first compound 2.53 µM): 0.786
- relative viability (SK-LU-1; first compound 8 µM): 0.832
- relative viability (EMC-BAC-2; first compound 0.08 µM): 1.17
- relative viability (EMC-BAC-2; first compound 0.8 µM): 1.17
- relative viability (EMC-BAC-2; first compound 2.53 µM): 1.33
- relative viability (EMC-BAC-2; first compound 8 µM): 1.3
- relative viability (LCLC-97TM1; first compound 0.8 µM): 0.46
- relative viability (LCLC-97TM1; first compound 2.53 µM): 0.499
- relative viability (LCLC-97TM1; first compound 8 µM): 0.399
- relative viability (HARA; first compound 0.08 µM): 1.12
- relative viability (HARA; first compound 0.8 µM): 1.2
- relative viability (HARA; first compound 2.53 µM): 1.12
- relative viability (HARA; first compound 8 µM): 1.13
- relative viability (NCI-H2126; first compound 0.08 µM): 0.879
- relative viability (NCI-H2126; first compound 0.8 µM): 0.801
- relative viability (NCI-H2126; first compound 2.53 µM): 0.848
- relative viability (NCI-H2126; first compound 8 µM): 0.869
- relative viability (H3255; first compound 0.08 µM): 0.516
- relative viability (H3255; first compound 0.8 µM): 0.674
- relative viability (H3255; first compound 2.53 µM): 0.551
- relative viability (H3255; first compound 8 µM): 0.599
- relative viability (NCI-H322M; first compound 0.08 µM): 1.1
- relative viability (NCI-H322M; first compound 0.8 µM): 1.37
- relative viability (NCI-H322M; first compound 2.53 µM): 1.48
- relative viability (NCI-H322M; first compound 8 µM): 1.12
- relative viability (NCI-H1437; first compound 0.08 µM): 1.07
- relative viability (NCI-H1437; first compound 0.8 µM): 1.14
- relative viability (NCI-H1437; first compound 2.53 µM): 1.11
- relative viability (NCI-H1437; first compound 8 µM): 0.707
- relative viability (HCC-827; first compound 0.08 µM): 1
- relative viability (HCC-827; first compound 0.8 µM): 1.09
- relative viability (HCC-827; first compound 2.53 µM): 1.03
- relative viability (HCC-827; first compound 8 µM): 1.04
- relative viability (NCI-H1792; first compound 0.08 µM): 0.593
- relative viability (NCI-H1792; first compound 0.8 µM): 0.649
- relative viability (NCI-H1792; first compound 2.53 µM): 0.892
- relative viability (NCI-H1792; first compound 8 µM): 0.669
- relative viability (NCI-H460; first compound 0.08 µM): 1.07
- relative viability (NCI-H460; first compound 0.8 µM): 1.26
- relative viability (NCI-H460; first compound 2.53 µM): 1.4
- relative viability (NCI-H460; first compound 8 µM): 1.08
- relative viability (HCC-15; first compound 0.08 µM): 0.659
- relative viability (HCC-15; first compound 0.8 µM): 0.773
- relative viability (HCC-15; first compound 2.53 µM): 0.718
- relative viability (HCC-15; first compound 8 µM): 0.693
- relative viability (NCI-H441; first compound 0.08 µM): 0.52
- relative viability (NCI-H441; first compound 2.53 µM): 0.56
- relative viability (NCI-H441; first compound 8 µM): 0.667
- relative viability (LC-2-ad; first compound 0.08 µM): 0.406
- relative viability (LC-2-ad; first compound 0.8 µM): 0.625
- relative viability (LC-2-ad; first compound 2.53 µM): 0.451
- relative viability (LC-2-ad; first compound 8 µM): 0.51
- relative viability (ChaGo-K-1; first compound 0.08 µM): 1.17
- relative viability (ChaGo-K-1; first compound 0.8 µM): 1.54
- relative viability (ChaGo-K-1; first compound 2.53 µM): 0.956
- relative viability (ChaGo-K-1; first compound 8 µM): 0.777
- relative viability (PC-3 [JPC-3]; first compound 0.08 µM): 0.82
- relative viability (PC-3 [JPC-3]; first compound 0.8 µM): 0.752
- relative viability (PC-3 [JPC-3]; first compound 2.53 µM): 0.941
- relative viability (PC-3 [JPC-3]; first compound 8 µM): 0.72
- relative viability (NCI-H1915; first compound 0.08 µM): 0.822
- relative viability (NCI-H1915; first compound 0.8 µM): 0.784
- relative viability (NCI-H1915; first compound 2.53 µM): 0.793
- relative viability (NCI-H1915; first compound 8 µM): 0.796
- relative viability (LU99A; first compound 0.08 µM): 0.993
- relative viability (LU99A; first compound 0.8 µM): 0.943
- relative viability (LU99A; first compound 2.53 µM): 0.864
- relative viability (LU99A; first compound 8 µM): 0.755
- relative viability (NCI-H1793; first compound 0.08 µM): 0.461
- relative viability (NCI-H1793; first compound 0.8 µM): 0.46
- relative viability (NCI-H1793; first compound 2.53 µM): 0.498
- relative viability (NCI-H1793; first compound 8 µM): 0.369
